{"source": "patent US20260132165A1", "about": "“MODIFIED NUCLEOSIDE ANALOGUE AND USE THEREOF, AND NUCLEOSIDE ANALOGUE-CONTAINING DOUBLE-STRANDED OLIGONUCLEOTIDE AND USE THEREOF” (RIGERNA THERAPEUTICS (BEIJING) CO., LTD., priority 2023, published 2026)", "key": {"target gene SOD1 [1]": {"test_system": "target gene SOD1", "test": "Test Example 3: inhibitory activity of lipid conjugated siRNA sequences on SOD1 by lateral ventricle administration to mice", "type": "in vivo, C57BL/6j mice", "details": "200 μg per mouse, D5", "procedure": "6-8 Week-old C57BL/6j mice were randomly grouped by body weight. Mice in each group were administered with siRNA by lateral ventricle administration, with an administration dose per mouse depending on a specific test. Taking Bregma in mouse brain as point 0 (origin), coordinates of right ventricle were found using the cerebral stereotaxic apparatus and position was marked on surface of skull (position of lateral ventricle was AP (anteroposterior, bregma anterior and posterior): −0.58 mm, ML (mediolateral, left and right of middle raphe): −1.2 mm, DV (dorsoventral, up and down cerebral dura mater plane): −2.2 mm). A dental electric drill was used to drill in the skull above a position of interest, and then medicament was injected into the lateral ventricle by a micro-dosing pump, wherein a total injection volume was 5 μL, and injection duration was 10 min. Needle was retained for 5 min after completion of injection, and then slowly withdrawn. Afterwards, needle hole was sealed with biomedical glue, and then head skin was adhered. After animals woke up, the animals were returned back to animal house and further fed. PBS control group was administered with the same volume of siRNA-free PBS solution. The day of administration was recorded as 0 day (D0), and the mice were sacrificed at observation point after the administration. Different parts of brain region were respectively taken and stored in the RNAlater.\n(§1) RNA extraction: the above tissue samples were taken out from the RNAlater, and smashed for 60 s in Tissuelyser type II full-automatic tissue homogenizer, and total RNAs of various tissue samples were extracted using the full-automatic nucleic acid extraction instrument and the nucleic acid extraction kit from Zhejiang Hanwei Science and Technology Co. Ltd. according to methods described in instructions.\n(§2) Reverse transcription reaction: 1 μg of the extracted total RNAs of the tissue samples were taken, and configured into 20 μL of reverse transcription system according to a method described in kit instructions by using a reverse transcription kit (Reverse Transcription System, A3500) from Promega Corporation and selecting Oligo (dT)15 reverse transcription primers, and the reverse transcription reaction was completed. After the reaction was ended, 80 μL of RNase-Free water was added into the reverse transcription system to provide cDNA solution for Real-time PCR detection.\n(§3) Real-time PCR detection: 20 μL of Real-time PCR reaction system per PCR detection well was configured according to a method described in kit instructions using SYBR™ Select Master Mix (Catalog number: 4472908) reagent from ABI company. Each detection system contained 5 μL of cDNA template obtained from the above reverse transcription reaction, 10 μL of SYBR™ Select Master Mix, 0.5 μL of 10 μM upstream primers, 0.5 μL of 10 μM downstream primers, and 4 μL of RNase-Free H2O. The configured reaction system was subjected to Real-time PCR amplification on ABI StepOnePlus PCR instrument by a three-step method, wherein an amplification procedure was pre-denaturation at 95° C. for 10 min, then denaturation at 95° C. for 30 s, annealing at 60° C. for 30 s, and extension at 72° C. for 30 s; and processes of denaturation, annealing, and extension were repeated for 40 cycles. Gene expression differences were calculated by the ΔΔCt method after completion of the procedure.\nIn the real-time fluorescence quantitative PCR method, relative quantitative calculation of remaining expression level and inhibition rate of gene mRNA of interest in various test groups was performed by the ΔΔCt method, and the calculation method is as follows: […]"}, "target gene SOD1 [2]": {"test_system": "target gene SOD1", "test": "Test Example 5: inhibitory activity of lipid conjugated siRNA sequences on SOD1 by intrathecal administration to rats", "type": "in vivo, SD rats", "set-up": "key to Lumbar segmen Mean value of inhibition rate / Cortex Mean value of inhibition rate / Thoracic segment Mean value of inhibition rate / Cervical segment Mean value of inhibition rate / Cerebellum Mean value of inhibition rate / Hippocampus Mean value of inhibition rate: inhibition rate of SOD1 mRNA, calculated by the ΔΔCt method", "details": "D7", "procedure": "6-8 Week-old SD rats were randomly grouped by body weight. Rats in each group were administered with siRNA by intrathecal administration, with an administration dose of 900 μg per rat. Injection was administered from rat spinal cord L5-L6, with an administration volume of 40 μL. Needle was retained for 2 min after completion of injection, and then slowly withdrawn. PBS control group was administered with the same volume of siRNA conjugate-free PBS solution. The day of administration was recorded as 0 day (D0), and the rats were sacrificed at observation point after administration. Different segments of spinal cord and different regions of brain were respectively taken and stored in the RNAlater.\nas §1, §2, §3\nIn the real-time fluorescence quantitative PCR method, relative quantitative calculation of remaining expression level and inhibition rate of gene mRNA of interest in various test groups was performed by the ΔΔCt method, and the calculation method is as follows:\nThe present example evaluated, by an evaluation method for inhibitory activity on a target gene by intrathecal administration to rats, the inhibitory activity of siRNA sequence RZ899060 with the sense strand with the NM031 conjugation at Position 4 and vector-free siRNA sequence RZ899056, and Uhd conjugated siRNA reference sequence RZ899055 on the target gene SOD1 of interest in spinal cord and brain of rats.\n6-8 Week-old SD rats were randomly grouped by body weight, 5 per group, 4 groups in total. Rats in each group were dosed with the above siRNA conjugates by intrathecal administration, with an administration dose of 900 μg per rat, and an administration volume of 40 μL. PBS control group was administered with the same volume of siRNA conjugate-free PBS solution. The day of administration was recorded as 0 day (D0), and the rats were sacrificed on D7 after administration. […]"}}, "note": "Several values for one entry are separate records, joined by “and”; a condition that tells them apart may be missing. Identical values can stand only once. Strand notation (5' to 3'): a small letter for the sugar, then the base; units joined by * are phosphorothioate-linked, units joined directly phosphodiester-linked; [ ] holds rarer units or linkages, { } end groups; capitals alone tell only the bases. [NM031] = nucleoside analogue NM031 of the disclosure, C16 lipid conjugate (uridine-based); {VP} = (thio)vinylphosphonate on the antisense 5' nucleotide, as listed; m = 2'-O-methyl; f = 2'-fluoro"}
{"substance": "RZ899060: siRNA sequence with the sense strand with the NM031 conjugation at Position 4; SEQ ID NO: 3 / 22 (sense mU*mU*mU[NM031]mAmAfUfCfCmUmCmAmCmUmCmUmAmAmA; antisense {VP}-mU*fU*mUmAmGfAmGmUmGmAmGmGmAfUmUfAmAmAmA*mU*mG)", "values": [{"measurement": "Cerebellum Mean value of inhibition rate %", "setting": "target gene SOD1 [1]; cerebellum", "value": 56.11, "unit": "%"}, {"measurement": "Cortex Mean value of inhibition rate %", "setting": "target gene SOD1 [1]; cortex", "value": 79.05, "unit": "%"}, {"measurement": "Hippocampus Mean value of inhibition rate %", "setting": "target gene SOD1 [1]; hippocampus", "value": "≥ 90% and 90.98%"}, {"measurement": "Cerebellum Mean value of inhibition rate", "setting": "target gene SOD1 [2]; cerebellum, intrathecal, 900 μg per rat", "value": 55.10}, {"measurement": "Cortex Mean value of inhibition rate", "setting": "target gene SOD1 [2]; cerebral cortex, intrathecal, 900 μg per rat", "value": 43.00}, {"measurement": "activity compared with the reference sequence RZ899055", "setting": "target gene SOD1 [2]; hippocampus and cortex in the brain region, intrathecal 900 μg per rat", "value": "substantially comparable"}, {"measurement": "Hippocampus Mean value of inhibition rate", "setting": "target gene SOD1 [2]; hippocampus, intrathecal, 900 μg per rat", "value": 47.77}, {"measurement": "activity compared with the Uhd conjugated reference sequence RZ899055", "setting": "target gene SOD1 [2]; lumbar segment, intrathecal 900 μg per rat", "value": "substantially comparable"}, {"measurement": "inhibitory activity in the spinal cord segments", "setting": "target gene SOD1 [2]; lumbar, thoracic and cervical segment, intrathecal 900 μg per rat", "value": "≥ 80", "unit": "%"}, {"measurement": "Cervical segment Mean value of inhibition rate", "setting": "target gene SOD1 [2]; spinal cord cervical segment, intrathecal, 900 μg per rat", "value": 83.37}, {"measurement": "Lumbar segmen Mean value of inhibition rate", "setting": "target gene SOD1 [2]; spinal cord lumbar segment, intrathecal, 900 μg per rat", "value": 84.24}, {"measurement": "Thoracic segment Mean value of inhibition rate", "setting": "target gene SOD1 [2]; spinal cord thoracic segment, intrathecal, 900 μg per rat", "value": 94.54}, {"measurement": "activity compared with the Uhd conjugated reference sequence RZ899055", "setting": "target gene SOD1 [2]; thoracic segment and cervical segment of spinal cord, intrathecal 900 μg per rat", "value": "superior"}]}
